{
  "source": "paper PMC7663272",
  "about": "“Discovery of Tricyclic Pyranochromenone as Novel Bruton’s Tyrosine Kinase Inhibitors with In Vivo Antirheumatic Activity” (International Journal of Molecular Sciences, 2020)",
  "key": {"ERBB2": {"target": "T1, ERBB2 (Homo sapiens, UniProt P04626)", "T1 construct": "purchased Reaction Biology Corporation", "T1 sequence (P04626 23-1255)": "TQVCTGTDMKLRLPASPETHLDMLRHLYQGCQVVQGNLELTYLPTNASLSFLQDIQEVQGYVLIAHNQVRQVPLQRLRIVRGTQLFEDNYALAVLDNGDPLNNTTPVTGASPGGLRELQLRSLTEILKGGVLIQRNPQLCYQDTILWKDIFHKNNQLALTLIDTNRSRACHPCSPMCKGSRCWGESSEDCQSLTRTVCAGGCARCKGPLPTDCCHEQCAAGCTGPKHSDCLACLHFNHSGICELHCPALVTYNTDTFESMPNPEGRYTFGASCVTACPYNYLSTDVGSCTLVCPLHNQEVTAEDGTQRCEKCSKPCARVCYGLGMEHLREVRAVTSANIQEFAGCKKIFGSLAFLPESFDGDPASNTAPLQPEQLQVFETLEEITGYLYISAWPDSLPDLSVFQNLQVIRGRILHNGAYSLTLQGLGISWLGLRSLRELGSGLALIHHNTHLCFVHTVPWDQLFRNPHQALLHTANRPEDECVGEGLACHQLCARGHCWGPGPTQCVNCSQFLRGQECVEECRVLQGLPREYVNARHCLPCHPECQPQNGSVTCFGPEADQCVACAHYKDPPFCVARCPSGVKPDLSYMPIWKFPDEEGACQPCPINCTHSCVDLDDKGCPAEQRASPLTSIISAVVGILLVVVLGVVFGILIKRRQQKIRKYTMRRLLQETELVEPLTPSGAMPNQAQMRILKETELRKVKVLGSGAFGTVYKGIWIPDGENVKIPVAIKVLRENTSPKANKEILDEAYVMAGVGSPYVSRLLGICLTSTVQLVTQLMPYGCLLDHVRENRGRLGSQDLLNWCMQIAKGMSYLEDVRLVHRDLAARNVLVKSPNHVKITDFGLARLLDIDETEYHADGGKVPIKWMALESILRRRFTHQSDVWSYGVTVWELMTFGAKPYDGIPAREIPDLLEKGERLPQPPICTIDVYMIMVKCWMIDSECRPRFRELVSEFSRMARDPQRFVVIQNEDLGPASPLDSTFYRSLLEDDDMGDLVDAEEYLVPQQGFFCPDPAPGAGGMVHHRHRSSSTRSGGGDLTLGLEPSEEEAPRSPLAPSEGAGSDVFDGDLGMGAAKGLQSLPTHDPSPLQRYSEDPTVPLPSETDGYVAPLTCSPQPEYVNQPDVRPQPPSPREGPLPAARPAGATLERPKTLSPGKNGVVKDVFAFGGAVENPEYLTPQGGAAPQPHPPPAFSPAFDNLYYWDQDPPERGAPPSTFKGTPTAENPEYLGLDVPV", "experiment": "HotSpot kinase enzymatic assay, ERBB2", "assay_type": "biochemical", "settings": "mean of two experiments", "protocol": "(§1) Therefore, efforts have focused on developing new compounds with good selectivity profiles. […] Compound 8 was selective against BTK. The biochemical activities of compound 8 differed among TEC family kinases. […] The inhibitory potential of compound 8 differed between members of the EGFR family. […] The inhibitory activity of compound 8 against JAK3 was also low.\n(§2) Kinase enzymatic assays for BTK, BMX, TXK, TEC, ITK, EGFR, ERBB2, ERBB4, and JAK3 were performed at Reaction Biology Corporation (www.reactionbiology.com, Malvern, PA, USA) using the HotSpot assay platform. Briefly, specific kinase/substrate pairs and the required cofactors were prepared in a reaction buffer comprising 20 mM HEPES (pH 7.5), 10 mM MgCl2, 1 mM EGTA, 0.02% Brij35, 0.02 mg/mL BSA, 0.1 mM Na3VO4, 2 mM DTT, and 1% DMSO. The compounds were added to the reaction mixture and allowed to incubate. Approximately 20 min later, a mixture of ATP (Sigma-Aldrich, St. Louis, MO, USA) and ^33P ATP (PerkinElmer, Waltham, MA, USA) was added to the reaction mixture at a final concentration of 10 μM. The reactions were performed at room temperature for 120 min; subsequently, the reactions were spotted onto P81 ion exchange filter papers (Whatman Inc., Maidstone, UK). Any unbound phosphate was removed by thoroughly washing the filter papers with 0.75% phosphoric acid. […]"}, "BTK-wt": {"target": "T2, BTK-wt (Homo sapiens, UniProt Q06187)", "T2 construct": "purchased Reaction Biology Corporation", "T2 sequence (Q06187 whole entry)": "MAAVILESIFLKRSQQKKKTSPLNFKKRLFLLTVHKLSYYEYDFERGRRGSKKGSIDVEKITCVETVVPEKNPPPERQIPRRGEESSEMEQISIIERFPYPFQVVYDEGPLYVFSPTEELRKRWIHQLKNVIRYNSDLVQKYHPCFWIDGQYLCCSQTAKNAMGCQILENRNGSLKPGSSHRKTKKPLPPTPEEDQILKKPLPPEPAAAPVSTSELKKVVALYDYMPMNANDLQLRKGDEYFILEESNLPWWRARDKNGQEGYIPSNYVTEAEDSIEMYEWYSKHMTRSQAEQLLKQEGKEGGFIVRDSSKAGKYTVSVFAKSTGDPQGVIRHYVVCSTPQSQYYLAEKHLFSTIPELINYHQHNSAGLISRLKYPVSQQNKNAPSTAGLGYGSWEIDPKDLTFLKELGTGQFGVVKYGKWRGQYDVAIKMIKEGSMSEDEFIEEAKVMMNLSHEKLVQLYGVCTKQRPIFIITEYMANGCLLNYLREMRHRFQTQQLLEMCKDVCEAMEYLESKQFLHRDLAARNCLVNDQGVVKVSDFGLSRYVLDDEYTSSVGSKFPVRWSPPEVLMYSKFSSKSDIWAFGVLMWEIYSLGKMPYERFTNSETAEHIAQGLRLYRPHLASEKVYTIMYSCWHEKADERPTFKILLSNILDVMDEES", "experiment": "HotSpot kinase enzymatic assay, BTK-wt", "assay_type": "biochemical", "protocol": "Kinase enzymatic assays for BTK, BMX, TXK, TEC, ITK, EGFR, ERBB2, ERBB4, and JAK3 were performed at Reaction Biology Corporation (www.reactionbiology.com, Malvern, PA, USA) using the HotSpot assay platform. Briefly, specific kinase/substrate pairs and the required cofactors were prepared in a reaction buffer comprising 20 mM HEPES (pH 7.5), 10 mM MgCl2, 1 mM EGTA, 0.02% Brij35, 0.02 mg/mL BSA, 0.1 mM Na3VO4, 2 mM DTT, and 1% DMSO. The compounds were added to the reaction mixture and allowed to incubate. Approximately 20 min later, a mixture of ATP (Sigma-Aldrich, St. Louis, MO, USA) and ^33P ATP (PerkinElmer, Waltham, MA, USA) was added to the reaction mixture at a final concentration of 10 μM. The reactions were performed at room temperature for 120 min; subsequently, the reactions were spotted onto P81 ion exchange filter papers (Whatman Inc., Maidstone, UK). […] GraphPad Prism software was used to obtain the IC50 values and perform curve fitting."}, "CYP2D6": {"target": "T3, CYP2D6 (Homo sapiens, UniProt P10635)", "T3 construct": "purchased Promega V9890", "T3 sequence (P10635 whole entry)": "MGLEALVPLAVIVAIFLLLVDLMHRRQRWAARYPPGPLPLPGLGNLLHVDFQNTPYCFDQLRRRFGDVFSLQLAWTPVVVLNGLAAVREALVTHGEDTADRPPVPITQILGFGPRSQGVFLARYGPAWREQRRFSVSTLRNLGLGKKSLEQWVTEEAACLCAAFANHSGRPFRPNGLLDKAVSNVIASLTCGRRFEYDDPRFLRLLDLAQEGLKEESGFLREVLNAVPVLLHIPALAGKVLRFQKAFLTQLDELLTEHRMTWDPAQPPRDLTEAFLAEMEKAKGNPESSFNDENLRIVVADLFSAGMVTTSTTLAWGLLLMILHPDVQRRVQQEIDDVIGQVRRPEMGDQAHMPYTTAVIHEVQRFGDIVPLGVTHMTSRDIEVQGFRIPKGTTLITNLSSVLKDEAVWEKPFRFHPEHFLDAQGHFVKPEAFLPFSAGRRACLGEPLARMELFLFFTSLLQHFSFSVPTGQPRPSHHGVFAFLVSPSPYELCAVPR", "experiment": "P450-Glo CYP inhibition assay, CYP2D6", "assay_type": "in vitro ADME", "protocol": "The potential for CYP450 inhibition (CYP1A2, 2C9, 2C19, 2D6, and […]) was assessed using Promega P450-Glo^TM CYP450 assay systems. Luciferin-ME served as the substrate for CYP1A2, and the inhibitor α-naphthoflavone was used as a positive control. Luciferin-H was used as the substrate for CYP2C9, and the inhibitor sulfaphenazole was used as a positive control. Luciferin-H EGE was selected as the substrate for CYP2C19, whereas the inhibitor amitriptyline served as a positive control. Luciferin-ME EGE was used as the substrate for CYP2D6, whereas the inhibitor quinidine served as a positive control. Luciferin-BE was used as the substrate for CYP3A4, whereas the inhibitor ketoconazole was used as a positive control. The assays were performed using the excitation and emission wavelengths recommended by the manufacturer. Briefly, a CYP enzyme and a P450-Glo™ substrate were combined in potassium phosphate (0.1 M KPO4) buffer, with or without a test compound of interest, and […]. The reaction was initiated by adding two volumes of 2 times concentrated NADPH regeneration system. […] Luminescence was subsequently measured using a Tecan Infinite M1000 PRO microplate reader (Tecan Group Ltd., Switzerland). The percent inhibition was calculated relative to that of the positive control at a fixed concentration. […]"}, "TEC": {"target": "T4, TEC (Homo sapiens, UniProt P42680)", "T4 construct": "purchased Reaction Biology Corporation", "T4 sequence (P42680 1-631)": "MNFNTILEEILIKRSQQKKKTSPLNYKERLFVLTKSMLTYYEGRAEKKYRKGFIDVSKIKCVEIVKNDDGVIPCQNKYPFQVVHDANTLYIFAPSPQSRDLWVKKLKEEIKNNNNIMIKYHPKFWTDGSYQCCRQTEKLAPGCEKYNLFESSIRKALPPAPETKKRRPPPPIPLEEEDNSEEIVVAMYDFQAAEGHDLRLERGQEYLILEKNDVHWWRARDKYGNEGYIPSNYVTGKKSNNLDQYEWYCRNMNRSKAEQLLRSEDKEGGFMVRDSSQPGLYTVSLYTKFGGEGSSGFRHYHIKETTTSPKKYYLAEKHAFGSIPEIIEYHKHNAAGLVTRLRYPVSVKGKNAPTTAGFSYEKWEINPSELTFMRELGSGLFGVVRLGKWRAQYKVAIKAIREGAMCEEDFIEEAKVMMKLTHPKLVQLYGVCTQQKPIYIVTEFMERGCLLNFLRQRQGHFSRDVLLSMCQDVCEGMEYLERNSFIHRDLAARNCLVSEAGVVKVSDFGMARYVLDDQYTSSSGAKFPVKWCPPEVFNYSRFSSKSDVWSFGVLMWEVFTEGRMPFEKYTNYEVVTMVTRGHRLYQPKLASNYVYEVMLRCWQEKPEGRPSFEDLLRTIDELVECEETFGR", "experiment": "HotSpot kinase enzymatic assay, TEC", "assay_type": "biochemical", "protocol": "as §1, §2"}},
  "note": "Like-named read-outs stand apart in the source and are kept apart here.",
  "data": [
    {"smiles": "C=CC(=O)O[C@H]1Cc2cc3ccc(=O)oc3cc2OC1(C)C", "note": "[Compound 8, (7S)-(+)-Acrylic acid, 8,8-dimethyl-2-oxo-6,7-dihydro-2H,8H-pyrano [3,2-g]chromen-7-yl ester]", "values": [
      {"measurement": "inhibition at 10 µM", "setting": "ERBB2", "value": 59.2, "unit": "%"},
      {"measurement": "inhibition at 10 µM", "setting": "BTK-wt; vs negative control (DMSO), mean of two separate experiments, NA = not active at 10 µM, read-out: % Inhibition (10 µM) BTK-wt", "value": 98.2, "unit": "%"},
      {"measurement": "IC50", "setting": "BTK-wt; HotSpot assay, 10 μM ATP, GraphPad Prism", "value": 800, "unit": "nM"},
      {"measurement": "inhibition at 10 µM", "setting": "BTK-wt; Table 2 selectivity profile, mean of two experiments, read-out: % Inhibition at 10 µM, BTK", "value": 98.2, "unit": "%"},
      {"measurement": "kinase selectivity (in words)", "setting": "BTK-wt; over EGFR and TEC family kinases, JAK3", "value": "selective for BTK over ITK, EGFR, ERBB4, and JAK3"},
      {"measurement": "CYP2D6 inhibition (in words)", "setting": "CYP2D6", "value": "weakly inhibited"},
      {"measurement": "CYP inhibition 2D6", "setting": "CYP2D6; % inhibition of human CYP isozymes at 10 μM", "value": 18.9, "unit": "%"},
      {"measurement": "inhibitory activity against TEC (in words)", "setting": "TEC", "value": "moderate activity"},
      {"measurement": "inhibition at 10 µM", "setting": "TEC; 10 µM, mean of two experiments", "value": 54.5, "unit": "%"}
    ]}
  ]
}
